# Test results: BindingDB's records for patent US20250296922 (Shanghai Wennai Therapeutics Co, 2025)
# Legend:
# Experiment in all cases: Human Liver Microsomal CYP Inhibition Test
# Cytochrome P450 2C19 = Cytochrome P450 2C19 (Homo sapiens, UniProt P33261)
# Protocol: (§1) 3.5.1 the working solution preparation of the compound to be tested and the positive control (100×);3.5.2 Taking the liver microsomes from the −80° C. cryogenic freezer and melting on ice;3.5.3 Adding 20 μL of substrate solution to the appropriate wells and 20 μL of potassium phosphate buffer to the blank wells;3.5.4 Adding 2 μL of different concentrations of target compounds (final concentrations from 0.05 μM to 50 μM, 7 concentrations in total) or standard inhibitors to each well, with 2 μL of methanol solution in the non-inhibitor and blank wells;3.5.5 Adding 1.012 mL of liver microsomes to 78.988 mL of potassium phosphate buffer, then adding 158 μL of liver microsomes solution to all wells; preheating the well plate for 10 minutes in a 37° C. water bath;3.5.6 Weighing 129.1 mg NADPH (purchased from SyncoZymes Co. Ltd.) and adding to 15.0 mL of 33 Mm MgCl2 solution to give a 10 mM concentration, adding 20 μL to each well;3.5.7 Mixing and incubating the well plate in a 37° C. water bath for 10 minutes, then adding 400 μL of cold termination solution at the appropriate time point;3.5.8 Centrifuging the sample at 4000 rpm for 20 minutes to precipitate the protein. Transferring 200 μL of supernatant to 100 μL of HPLC water and shaking for 10 minutes. The samples were analyzed by LC/MS/MS.
# Cytochrome P450 2C9 = Cytochrome P450 2C9 (Homo sapiens, UniProt P11712)
# Protocol: as §1
# Cytochrome P450 2D6 = Cytochrome P450 2D6 (Homo sapiens, UniProt P10635)
# Protocol: as §1
# Cytochrome P450 1A2 = biological target: T1, Cytochrome P450 1A2 (Homo sapiens, UniProt P05177)
# T1 sequence (P05177 whole entry): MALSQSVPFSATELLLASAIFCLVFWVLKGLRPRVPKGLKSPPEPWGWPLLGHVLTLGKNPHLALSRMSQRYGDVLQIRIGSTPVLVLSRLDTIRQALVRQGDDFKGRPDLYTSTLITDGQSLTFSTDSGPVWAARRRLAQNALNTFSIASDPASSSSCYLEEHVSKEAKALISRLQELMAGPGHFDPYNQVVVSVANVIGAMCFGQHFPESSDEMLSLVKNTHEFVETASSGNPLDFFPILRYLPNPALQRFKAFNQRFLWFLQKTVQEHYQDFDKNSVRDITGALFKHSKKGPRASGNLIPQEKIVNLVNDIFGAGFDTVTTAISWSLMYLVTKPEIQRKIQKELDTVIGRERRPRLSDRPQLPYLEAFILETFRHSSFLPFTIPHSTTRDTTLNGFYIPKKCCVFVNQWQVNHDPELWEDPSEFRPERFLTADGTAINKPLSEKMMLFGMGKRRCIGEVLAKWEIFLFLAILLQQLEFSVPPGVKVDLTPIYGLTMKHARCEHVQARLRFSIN
# Protocol: as §1
# Cytochrome P450 2D6, sequence (P10635 whole entry): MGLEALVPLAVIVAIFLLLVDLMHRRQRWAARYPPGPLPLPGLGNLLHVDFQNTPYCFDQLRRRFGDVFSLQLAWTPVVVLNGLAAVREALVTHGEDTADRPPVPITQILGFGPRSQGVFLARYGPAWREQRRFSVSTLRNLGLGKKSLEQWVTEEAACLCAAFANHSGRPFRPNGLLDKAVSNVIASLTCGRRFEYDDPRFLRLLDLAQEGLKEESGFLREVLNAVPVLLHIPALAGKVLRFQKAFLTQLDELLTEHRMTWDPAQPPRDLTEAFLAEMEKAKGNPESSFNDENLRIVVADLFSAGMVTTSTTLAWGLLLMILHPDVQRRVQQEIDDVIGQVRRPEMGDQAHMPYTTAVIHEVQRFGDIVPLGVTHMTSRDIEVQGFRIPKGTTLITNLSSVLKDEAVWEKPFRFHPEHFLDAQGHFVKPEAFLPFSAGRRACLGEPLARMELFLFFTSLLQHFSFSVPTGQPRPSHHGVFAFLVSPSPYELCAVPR
# Cytochrome P450 2C9, sequence (P11712 whole entry): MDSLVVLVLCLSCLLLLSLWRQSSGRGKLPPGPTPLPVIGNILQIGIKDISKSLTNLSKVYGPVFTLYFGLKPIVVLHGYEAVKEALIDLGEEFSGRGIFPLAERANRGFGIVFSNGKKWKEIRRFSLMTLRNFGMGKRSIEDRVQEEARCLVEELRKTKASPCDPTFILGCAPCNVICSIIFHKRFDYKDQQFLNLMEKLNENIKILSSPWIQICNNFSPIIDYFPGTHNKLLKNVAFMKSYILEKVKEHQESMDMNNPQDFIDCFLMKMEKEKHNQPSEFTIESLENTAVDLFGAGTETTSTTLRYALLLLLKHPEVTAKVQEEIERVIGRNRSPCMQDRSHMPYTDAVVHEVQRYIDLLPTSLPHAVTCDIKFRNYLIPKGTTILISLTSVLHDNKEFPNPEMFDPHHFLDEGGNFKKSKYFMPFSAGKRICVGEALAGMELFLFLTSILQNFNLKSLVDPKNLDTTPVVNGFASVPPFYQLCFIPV
# Cytochrome P450 2C19, sequence (P33261 whole entry): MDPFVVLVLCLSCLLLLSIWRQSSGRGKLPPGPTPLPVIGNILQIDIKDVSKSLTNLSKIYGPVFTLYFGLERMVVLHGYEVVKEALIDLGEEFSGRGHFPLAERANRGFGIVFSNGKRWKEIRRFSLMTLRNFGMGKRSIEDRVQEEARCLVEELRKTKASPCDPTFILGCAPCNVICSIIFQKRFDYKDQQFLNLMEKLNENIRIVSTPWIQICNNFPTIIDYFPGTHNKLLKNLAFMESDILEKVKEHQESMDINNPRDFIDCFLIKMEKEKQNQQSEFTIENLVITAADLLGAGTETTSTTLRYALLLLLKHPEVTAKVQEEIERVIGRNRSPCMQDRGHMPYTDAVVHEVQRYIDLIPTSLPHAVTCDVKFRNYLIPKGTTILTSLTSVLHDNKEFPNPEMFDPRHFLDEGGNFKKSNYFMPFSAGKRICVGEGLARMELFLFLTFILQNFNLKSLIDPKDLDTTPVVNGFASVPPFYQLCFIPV
smiles,measurement,setting,value
"COc1c([C@H]2[C@H](C(=O)Nc3ccc[n+]([O-])c3)C[C@@](C)(C(F)(F)F)[C@H]2C)ccc(F)c1F [US20250296922, Compound 7]",IC50,Cytochrome P450 2C19,2.13 µM
same,IC50,Cytochrome P450 2C9,> 50 µM
same,IC50,Cytochrome P450 2D6,> 50 µM
same,IC50,Cytochrome P450 1A2,> 50 µM
